# Test results published in the supplement of paper PMC12317010.
# Structures can show the parent of a compound that is named as a salt.
# Assay: collision cross section in nitrogen (drift tube, single-field); higher = larger gas-phase ion size
# [1] = ion type: [M+H], ion source: APCI, ion mode: Positive
# [2] = ion type: [M+H], ion source: ESI, ion mode: Positive
# [3] = ion type: [M+Na], ion source: ESI, ion mode: Positive
# [4] = ion type: [M-H], ion source: ESI, ion mode: Negative
# [5] = ion type: [M+], ion source: APCI, ion mode: Positive
# 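Also: chemical standards at 10 µM analysed by drift tube IMS-QTOF MS in about 3.95 torr nitrogen, mean of duplicate injections differing ≤1%, mass error below 10 ppm.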
Structure (SMILES),collision cross section in nitrogen [1],collision cross section in nitrogen [2],collision cross section in nitrogen [3],collision cross section in nitrogen [4],other results
"Cc1ccc(N(CCO)CCO)cc1 [2,2'-[(4-Methylphenyl)imino]diethanol]",141.8 Å²,143.4 Å²,151 Å²,,
Cc1cnc(NC(=O)C2=C(O)c3ccccc3S(=O)(=O)N2C)s1 [Meloxicam],179.2 Å²,178.5 Å²,184.2 Å²,177.7 Å²,
O=C(O)c1cc(=O)c2c(OCC(O)COc3cccc4oc(C(=O)O)cc(=O)c34)cccc2o1 [Cromolyn sodium],,208.8 Å²,211.8 Å²,186 Å²,
CCC1(c2ccc(N)cc2)CCC(=O)NC1=O (stereo unspecified) [Aminoglutethimide],,,,158.8 Å²,
O=C(NC(=O)c1c(F)cccc1F)Nc1ccc(OC(F)(F)C(F)OC(F)(F)F)c(Cl)c1 (stereo unspecified) [Novaluron],,,,204.4 Å²,
CC(=O)OC[C@H]1O[C@@](COC(C)=O)(O[C@H]2O[C@H](COC(C)=O)[C@@H](OC(C)=O)[C@H](OC(C)=O)[C@H]2OC(C)=O)[C@@H](OC(C)=O)[C@@H]1OC(C)=O [Sucrose octaacetate],,,238.1 Å²,,
CCC1(C)NC(=O)NC1=O (stereo unspecified) [5-Ethyl-5-methylhydantoin],,,,129.7 Å²,
Cc1ccc(Nc2ccc(Nc3ccc(C)cc3S(=O)(=O)O)c3c2C(=O)c2ccccc2C3=O)c(S(=O)(=O)O)c1,,235.2 Å²,,227.8 Å²,
CCCCC(CC)COC(=O)c1ccccc1C(=O)O (stereo unspecified) [Mono(2-ethylhexyl) phthalate],,,182.1 Å²,169.2 Å²,
Cc1cc(=O)oc2cc(O)ccc12 [4-Methylumbelliferone],,132.6 Å²,,133.3 Å²,
O=C1Nc2ccc(Cl)cc2[C@@](C#CC2CC2)(C(F)(F)F)O1 [Efavirenz],,,,168.1 Å²,
"COc1cc(OC)c2ccc(=O)oc2c1 [5,7-Dimethoxy-2H-chromen-2-one]",139.1 Å²,139.6 Å²,,,
"O=C1NC(=O)[C@@H]2CC=CC[C@H]12 [cis-1,2,3,6-Tetrahydrophthalimide]",,,,133 Å²,
"O=[N+]([O-])c1ccc(O)c([N+](=O)[O-])c1 [2,4-Dinitrophenol]",,,,127.8 Å²,
"N#Cc1ccc(C(c2ccc(C#N)cc2)n2cncn2)cc1 [4,4'-(1H-1,2,4-Triazol-1-ylmethylene)dibenzonitrile]",,,,166.5 Å²,
Oc1nc2ccccc2s1 [Benzothiazolone],,,,123.7 Å²,
C[C@H]1O[C@@H](O[C@H]2[C@@H](O)C[C@H](O[C@H]3[C@@H](O)C[C@H](O[C@H]4CC[C@@]5(C)[C@H](CC[C@@H]6[C@@H]5C[C@@H](O)[C@]5(C)[C@@H](C7=CC(=O)OC7)CC[C@]65O)C4)O[C@@H]3C)O[C@@H]2C)C[C@H](O)[C@@H]1O [Digoxin],,,276.8 Å²,269.7 Å²,
CCCOc1ccc(S(=O)(=O)N2CCN(CC)CC2)cc1-c1nc2c(CC)n(Cc3ccccn3)nc2c(=O)[nH]1,237 Å²,236.5 Å²,256.9 Å²,238.6 Å²,
CCc1ccc(CCOc2ccc(CC3SC(=O)NC3=O)cc2)nc1 (stereo unspecified) [Pioglitazone hydrochloride],178.8 Å²,178.9 Å²,186.7 Å²,176.4 Å²,
"CNC[C@H](O)[C@@H](O)[C@H](O)[C@H](O)CO [(2R,3R,4R,5S)-6-(Methylamino)hexane-1,2,3,4,5-pentol]",141 Å²,141.3 Å²,147.7 Å²,140.4 Å²,
O=C(Oc1ccccc1)c1ccc(O)cc1 [Phenylparaben],,,,150.3 Å²,

Structure (SMILES),collision cross section in nitrogen [1],collision cross section in nitrogen [2],collision cross section in nitrogen [3],collision cross section in nitrogen [4],other results
c1ccc(CNc2[nH]cnc3ncnc2-3)cc1 [N-Benzyl-1H-purin-6-amine],148.7 Å²,148.3 Å²,162.8 Å²,154.5 Å²,
CCOC(=O)CC(=O)c1ccccc1 [Ethyl benzoylacetate],,,155.9 Å²,,
CC(C)(C)c1csc(-c2cc3cc(OCc4ccccc4CC(=O)O)ccc3o2)n1,211.8 Å²,211.5 Å²,203.4 Å²,,
CC(C)COC(=O)CCCCC(=O)OCC(C)C [Diisobutyl adipate],,,179.8 Å²,,
O=C(O)c1cccc(N(Cc2cccnc2)c2ccc(OC(F)F)c(OC(F)F)c2)c1,201.3 Å²,200.4 Å²,205.9 Å²,202.6 Å²,
Cc1cccc(Nc2ccccc2C(=O)O)c1C [Mefenamic acid],,,,160.9 Å²,collision cross section in nitrogen [5]: 152.3 Å²
CC(=O)CC(=O)Nc1ccc(Cl)cc1 [4'-Chloroacetoacetanilide],,,,143.8 Å²,
CS(=O)(=O)OCCOS(C)(=O)=O [Ethylene dimethanesulfonate],,,144.8 Å²,,
CCCCCCCCc1ccc(O)cc1 [4-Octylphenol],,,,159.9 Å²,
CCCCCCCCCCCC[N+](C)(C)C [Dodecyltrimethylammonium bromide],,,,,"collision cross section in nitrogen (ion source: ESI, ion mode: Positive, ion type: [M]+ (permanent cation)): 175.8 Å²"
c1ccc2[nH]c(-c3cscn3)nc2c1 [Thiabendazole],141.6 Å²,139.7 Å²,152.4 Å²,142 Å²,
O=c1cccc[nH]1 [2(1H)-Pyridinone],,115.5 Å²,,,
NC(=O)CN1CCCC1=O [2-Oxo-1-Pyrrolidineacetamide],,,136.8 Å²,,
NS(=O)(=O)c1ccc(Cl)cc1 [4-Chlorobenzenesulphonamide],,,,134.9 Å²,
O=C(C1CCCCC1)N1CC(=O)N2CCc3ccccc3C2C1 (stereo unspecified) [Praziquantel],178.5 Å²,178.3 Å²,185.4 Å²,,
CCCCOCCOCCOCCO [2-[2-(2-Butoxyethoxy)ethoxy]ethanol],,,150.9 Å²,,
Cc1cc(SCc2sc(-c3ccc(C(F)(F)F)c(F)c3)nc2C)ccc1OCC(=O)O,194.4 Å²,194.2 Å²,,199.5 Å²,
C[C@]12CCC(=O)C(O)=C1CC[C@@H]1[C@@H]2CC[C@]2(C)C(=O)CC[C@@H]12 [4-Hydroxyandrostenedione],,,,180 Å²,
CCCCC(CC)COC(=O)CC(C(=O)OCC(CC)CCCC)S(=O)(=O)O (stereo unspecified) [Docusate sodium],,,,206.1 Å²,
"C/C=C/C=C/CO [(2E,4E)-Hexa-2,4-dien-1-ol]",,,,,collision cross section in nitrogen [5]: 117.4 Å²
Oc1ccc(Cc2ccc(O)cc2)cc1 [Bis(4-hydroxyphenyl)methane],,,,153.6 Å²,

Structure (SMILES),collision cross section in nitrogen [1],collision cross section in nitrogen [2],collision cross section in nitrogen [3],collision cross section in nitrogen [4],other results
CC(C)=CCCC(C)CC(=O)O (stereo unspecified) [Citronellic acid],,,,148.8 Å²,
C[C@]12CCC(=O)C=C1CC[C@@H]1[C@@H]2CC[C@@]2(C)[C@H]1CC[C@]2(C)O [17-Methyltestosterone],,177.6 Å²,,,
CN(C)[C@@H]1C(O)=C(C(N)=O)C(=O)[C@@]2(O)C(O)=C3C(=O)c4c(O)cccc4[C@@](C)(O)[C@H]3[C@H](O)[C@@H]12 [Oxytetracycline hydrochloride],199.9 Å²,197.8 Å²,207.7 Å²,198.4 Å²,
Cc1c(C)c2c(c(C)c1O)CCC(C)(COc1ccc(CC3SC(=O)NC3=O)cc1)O2 (stereo unspecified) [Troglitazone],,,,193.9 Å²,
CON(C)C(=O)Nc1ccc(Br)c(Cl)c1 [Chlorbromuron],,,,152.8 Å²,
CCOP(=O)(NC(C)C)Oc1ccc(SC)c(C)c1 (stereo unspecified) [Fenamiphos],172.5 Å²,171.3 Å²,178.1 Å²,172.2 Å²,
"CC1=C(C#N)C(=O)N(C)C(=O)C1 [1,2-Dihydro-6-hydroxy-1,4-dimethyl-2-oxonicotinonitrile]",,133.8 Å²,144.6 Å²,131.2 Å²,
O=S(=O)(O)c1cc(O)c(O)c(S(=O)(=O)O)c1 [Tiron],,,,145.8 Å²,
"CC1=NN(c2ccc(S(=O)(=O)O)cc2)C(=O)C1N=Nc1ccccc1 (stereo unspecified) [C.I. Acid Yellow 11, sodium salt]",,,,199.2 Å²,
CCCCCCCCC=CCCCCCCCC1=NCCN1CCO [2-(8-Heptadecenyl)-2-imidazoline-1-ethanol],199.3 Å²,199.8 Å²,,196.6 Å²,
c1ccc2[nH]cnc2c1 [Benzimidazole],121 Å²,121.8 Å²,,,
CC(C)Nc1nc(N)nc(Cl)n1 [Desethylatrazine],139.3 Å²,139.4 Å²,,,
C=C(C)C(=O)OCCOC(=O)CC(C)=O [2-(Methacryloyloxy)ethyl acetoacetate],,,147.6 Å²,,
O=C(NS(=O)(=O)/C=C/c1ccccc1)c1ccc(F)cc1Cl,,,188.9 Å²,177.6 Å²,
Nc1cc(-c2ccncc2)c[nH]c1=O [Amrinone],142.7 Å²,143.3 Å²,,140.7 Å²,
CCc1cccc(O)c1 [3-Ethylphenol],,,,127.5 Å²,
CC(=O)Nc1ccc(CC(=O)O)cc1 [Actarit],,143.7 Å²,143.5 Å²,,
"c1ccc(-c2ccccn2)nc1 [2,2'-Bipyridine]",126.4 Å²,127 Å²,,,
CC1(C)S[C@@H]2[C@H](NC(=O)COc3ccccc3)C(=O)N2[C@H]1C(=O)O [Penicillin VK],182 Å²,182.1 Å²,184.1 Å²,,
Cc1cc(F)ccc1-c1cc(N2CC[C@@H](O)[C@H]2CO)ncc1N(C)C(=O)C(C)(C)c1cc(C(F)(F)F)cc(C(F)(F)F)c1,245.7 Å²,244.6 Å²,246.4 Å²,232.7 Å²,
